IC50 data for 23 compounds are collected here from US20220257774A1, “AROMATIC AMINE AR AHD BET TARGETING PROTEIN DEGRADATION CHIMERA COMPOUND AND USE” (HINOVA PHARMACEUTICALS INC., priority 2019, published 2022).

Assay [1] has as its system LNCaP/AR cells. Briefly: Inhibition of the proliferation of LNCap/AR cells (CCK-8). Particulars: read-out: LNCap/AR IC50. The format is cell-based. Put shortly: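 Proliferation was read by CCK-8 (OD 450 nm, 1 h) after six days of compound exposure. Cells were seeded at 1000 per well overnight, then dosed in duplicate over nine 3-fold steps with a top final concentration of 10 μM in 0.1% DMSO; IC50 was fitted from inhibition curves.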

Assay [2] concerns 22RV1 cells. The experiment in a line: Inhibition of the proliferation of drug-resistant prostate cancer cell 22RV1 (CCK-8). In kind it is cell-based. Particulars: 22RV1 cells (enzalutamide-resistant), same method. Put shortly:
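22RV1 cells, 1000/well in RPMI1640 with 10% FBS, treated in duplicate with 9-point 3-fold dilutions from 10 μM (0.1% DMSO final). After 6 days at 37 °C, CCK-8 added for 1 h and OD450 read. IC50 from dose-response inhibition fit.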

[3] abbreviates: LNCaP/AR cells, 6 days culture, CCK-8.
The mark [4] stands for this setting: 144 h, LNCaP/AR cells, 6 days culture, CCK-8.

Read-outs that look alike come from different tables or passages of the source.

In the case of `Cc1ccc(-c2c(C)noc2C)cc1N(CC1CCC(Nc2cc3c(cc2F)C(=O)N(C2CCC(=O)NC2=O)C3)CC1)c1ccc(C2(C#N)CC2)cc1` (stereo not shown) [Compound 115, 1-(4-((5-(3,5-Dimethylisoxazol-4-yl)-2-methylphenyl)((((1r,4r)-4-((2-(2,6-dioxopiperidin-3-yl)-6-fluoro-1-oxoisoindolin-5-yl)amino)cyclohexyl)methyl)amino)phenyl)cyclopropanecarbonitrile], the figures for the IC50 in assay [1] (setting [3]) and in assay [2] were 101 to 500 nM and 501 to 2000 nM, respectively.
Taken in the same sequence, the figures for `Cc1ccc(-c2c(C)noc2C)cc1N(CC1CCC(Nc2ccc3c(c2)C(=O)N(C2CCC(=O)NC2=O)C3=O)CC1)c1ccc(C2(C#N)CC2)cc1` (stereo not shown) [Compound 116, 1-(4-((5-(3,5-Dimethylisoxazol-4-yl)-2-methylphenyl)((((1r,4r)-4-((2-(2,6-dioxopiperidin-3-yl)-1,3-dioxoisoindolin-5-yl)amino)cyclohexyl)methyl)amino)phenyl)cyclopropanecarbonitrile] were 101 to 500 nM and more than 2000 nM.
For the compound `Cc1ccc(-c2c(C)noc2C)cc1N(CCCOC1CN(c2ccc3c(c2)C(=O)N(C2CCC(=O)NC2=O)C3=O)C1)c1ccc(C2(C#N)CC2)cc1` (stereo not shown) [Compound 119, 1-(4-((5-(3,5-dimethylisoxazol-4-yl)-2-methylphenyl)(3-((1-(2-(2,6-dioxopiperidin-3-yl)-1,3-dioxoisoindolin-5-yl)azetidin-3-yl)oxy)propyl)amino)phenyl)cyclopropane-1-nitrile], the IC50 in assay [1] (setting [4]) is 101 to 500 nM; in assay [2] (Homo sapiens), more than 2000 nM.
The corresponding values for `Cc1ccc(-c2c(C)noc2C)cc1N(CCCOC1CN(c2ccc3c(c2)C(=O)N(C2CCC(=O)NC2=O)C3)C1)c1ccc(C2(C#N)CC2)cc1` (stereo not shown) [Compound 121, 1-(4-((5-(3,5-dimethylisoxazol-4-yl)-2-methylphenyl)(3-((1-(2-(2,6-dioxopiperidin-3-yl)-3-oxoisoindolin-5-yl)azetidin-3-yl)oxy)propyl)amino)phenyl)cyclopropane-1-nitrile] are 101 to 500 nM and less than 100 nM.
On to `Cc1ccc(-c2c(C)noc2C)cc1N(CCCOC1CN(c2ccc3c(c2)CN(C2CCC(=O)NC2=O)C3=O)C1)c1ccc(C2(C#N)CC2)cc1` (stereo not shown) [Compound 122, 1-(4-((5-(3,5-dimethylisoxazol-4-yl)-2-methylphenyl)(3-((1-(2-(2,6-dioxopiperidin-3-yl)-1-oxoisoindolin-5-yl)azetidin-3-yl)oxy)propyl)amino)phenyl)cyclopropane-1-nitrile], for which the IC50 in assay [1] (setting [4]) and in assay [2] (Homo sapiens) was less than 100 nM throughout.
For `Cc1ccc(-c2c(C)noc2C)cc1N(CC1CC2(C1)CN(c1cc3c(cc1F)C(=O)N(C1CCC(=O)NC1=O)C3)C2)c1ccc(C2(C#N)CC2)cc1` (stereo not shown) [Compound 125, 1-(4-((5-(3,5-dimethylisoxazol-4-yl)-2-methylphenyl)((2-(2-(2-,2,6-dioxopiperidin-3-yl)-6-fluoro-1-oxoisoindolin-5-yl)-2-azaspiro[3.3]heptan-6-yl)methyl)amino)phenyl)cyclopropane-1-carbonitrile], the IC50 in assay [1] (setting [4]) and in assay [2] (Homo sapiens) was 501 to 2000 nM each time.
As for `Cc1ccc(-c2c(C)noc2C)cc1N(CC1CC2(C1)CN(c1cc3c(cc1F)CN(C1CCC(=O)NC1=O)C3=O)C2)c1ccc(C2(C#N)CC2)cc1` (stereo not shown) [Compound 126, 1-(4-((5-(3,5-dimethylisoxazol-4-yl)-2-methylphenyl)((2-(2-(2-,2,6-dioxopiperidin-3-yl)-6-fluoro-3-oxoisoindolin-5-yl)-2-azaspiro[3.3]heptan-6-yl)methyl)amino)phenyl)cyclopropane-1-carbonitrile], the IC50 in assay [1] (setting [3]) is 501 to 2000 nM; in assay [2], more than 2000 nM.
Regarding `Cc1ccc(-c2c(C)noc2C)cc1N(CCC1CN(c2cc3c(cc2F)C(=O)N(C2CCC(=O)NC2=O)C3=O)C1)c1ccc(C2(C#N)CC2)cc1` (stereo not shown) [Compound 130, 1-(4-((5-(3,5-dimethylisoxazol-4-yl)-2-methylphenyl)(2-(1-(2-(2,6-dioxopiperidin-3-yl)-6-fluoro-1,3-dioxoisoindolin-5-yl)azetidin-3-yl)ethyl)amino)phenyl)cyclopropane-1-carbonitrile], the results for the IC50 in assay [1] (setting [3]) and in assay [2] were 101 to 500 nM and less than 100 nM, respectively.
As for `Cc1ccc(-c2c(C)noc2C)cc1N(C[C@H]1CC[C@H](CNc2ccc3c(c2)C(=O)N(C2CCC(=O)NC2=O)C3=O)CC1)c1ccc(C#N)c(Cl)c1` (stereo partly shown) [Compound 132, 2-Chloro-4-((5-(3,5-dimethylisoxazol-4-yl)-2-methylphenyl)(((1r,4r)-4-(((2-(2,6-dioxopiperidin-3-yl)-1,3-dioxoisoindolin-5-yl)amino)methyl)cyclohexyl)methyl)amino)benzonitrile], the IC50 is more than 2000 nM in assay [1] (LNCaP/AR, 144 h) and 101 to 500 nM in assay [2] (Homo sapiens).
As to `Cc1ccc(-c2c(C)noc2C)cc1N(CC1CCC(CNc2ccc3c(c2)CN(C2CCC(=O)NC2=O)C3=O)CC1)c1ccc(C#N)c(Cl)c1` (stereo not shown) [Compound 133, 2-Chloro-4-((5-(3,5-dimethylisoxazol-4-yl)-2-methylphenyl)((1r,4r)-4-((2-(2,6-dioxopiperidin-3-yl)-1-oxoisoindolin-5-yl)amino)methyl)cyclohexyl)methyl)amino)benzonitrile], the IC50 in assay [1] (LNCaP/AR, 144 h) is less than 100 nM; in assay [2] (Homo sapiens), less than 100 nM.
For `Cc1ccc(-c2c(C)noc2C)cc1N(CC1CCC(CNc2ccc3c(c2)C(=O)N(C2CCC(=O)NC2=O)C3)CC1)c1ccc(C#N)c(Cl)c1` (stereo not shown) [Compound 134, 2-Chloro-4-((5-(3,5-dimethylisoxazol-4-yl)-2-methylphenyl)((1r,4r)-4-((2-(2,6-dioxopiperidin-3-yl)-3-oxoisoindolin-5-yl)amino)methyl)cyclohexyl)methyl)amino)benzonitrile], the IC50 was 101 to 500 nM in assay [1] (LNCaP/AR, 144 h) and less than 100 nM in assay [2] (Homo sapiens).
Taken in the same sequence, the figures for `Cc1ccc(-c2c(C)noc2C)cc1N(C[C@H]1CC[C@H](CNc2cc3c(cc2F)CN(C2CCC(=O)NC2=O)C3=O)CC1)c1ccc(C#N)c(Cl)c1` (stereo partly shown) [Compound 136] were 501 to 2000 nM and 101 to 500 nM.
As for `Cc1ccc(-c2c(C)noc2C)cc1N(CC1(COC2CN(c3cc4c(cc3F)C(=O)N(C3CCC(=O)NC3=O)C4=O)C2)CC1)c1ccc(C2(C#N)CC2)cc1` (stereo not shown) [Compound 138, 1-(4-((5-(3,5-dimethylisoxazol-4-yl)-2-methylphenyl)((1-(((1-(2-(2,6-dioxopiperidin-3-yl)-6-fluoro-1,3-dioxoisoindolin-5-yl)azetidin-3-yl)oxy)methyl)cyclopropyl)methyl)amino)phenyl)cyclopropane-1-nitrile], the values for the IC50 in assay [1] (setting [4]) and in assay [2] (Homo sapiens) were 101 to 500 nM and more than 2000 nM, respectively.
Turning to `Cc1ccc(-c2c(C)noc2C)cc1N(CC1CN(C2CCN(c3cc4c(cc3F)C(=O)N(C3CCC(=O)NC3=O)C4=O)CC2)C1)c1ccc(C2(C#N)CC2)cc1` (stereo not shown) [Compound 139, 1-(4-((5-(3,5-dimethylisoxazol-4-yl)-2-methylphenyl)((1-(1-(2-(2,6-dioxopiperidin-3-yl)-6-fluoro-1,3-dioxoisoindolin-5-yl)piperidin-4-yl)azetidin-3-yl)methyl)amino)phenyl)cyclopropane-1-carbonitrile], the IC50 in assay [1] (setting [4]) and in assay [2] (Homo sapiens) was more than 2000 nM each time.
For the compound `Cc1ccc(-c2c(C)noc2C)cc1N(CCCCCOCC(=O)N[C@H](C(=O)N1C[C@H](O)C[C@H]1C(=O)N[C@@H](C)c1ccc(-c2scnc2C)cc1)C(C)(C)C)c1ccc(C2(C#N)CC2)cc1` [Compound 143], the IC50 in assay [1] (setting [4]) is 101 to 500 nM; in assay [2] (Homo sapiens), less than 100 nM.
`Cc1ccc(-c2c(C)noc2C)cc1N(CC1CN(C2CCN(c3ccc4c(c3)C(=O)N(C3CCC(=O)NC3=O)C4=O)CC2)C1)c1ccc(C2(C#N)CC2)cc1` (stereo not shown) [Compound 152]: the IC50 in assay [1] (LNCaP/AR, 144 h) is more than 2000 nM; in assay [2] (Homo sapiens), 501 to 2000 nM.
Take `Cc1ccc(-c2c(C)noc2C)cc1N(CC1CN(C2CN(c3cc4c(cc3F)C(=O)N(C3CCC(=O)NC3=O)C4=O)C2)C1)c1ccc(C2(C#N)CC2)cc1` (stereo not shown) [Compound 153]: the IC50 in assay [1] (setting [3]) and in assay [2] was less than 100 nM throughout.
Consider `Cc1ccc(-c2c(C)noc2C)cc1N(CC1CC2(CCN(c3cc4c(cc3F)C(=O)N(C3CCC(=O)NC3=O)C4=O)CC2)C1)c1ccc(C2(C#N)CC2)cc1` (stereo not shown) [Compound 154], for which the results for the IC50 in assay [1] (setting [4]) and in assay [2] (Homo sapiens) were 501 to 2000 nM and 101 to 500 nM, respectively.
Turning to `Cc1ccc(-c2c(C)noc2C)cc1N(CC1CN(c2cc3c(cc2F)CN(C2CCC(=O)NC2=O)C3=O)C1)c1ccc(C2(C#N)CC2)cc1` (stereo not shown) [Compound 155], the IC50 in assay [1] (setting [4]) and in assay [2] (Homo sapiens) was more than 2000 nM throughout.
Turning to `Cc1ccc(-c2c(C)noc2C)cc1N(CC1CN(c2cc3c(cc2F)C(=O)N(C2CCC(=O)NC2=O)C3)C1)c1ccc(C2(C#N)CC2)cc1` (stereo not shown) [Compound 156], the IC50 was 101 to 500 nM in assay [1] (setting [4]) and 501 to 2000 nM in assay [2] (Homo sapiens).
For the compound `Cc1ccc(-c2c(C)noc2C)cc1N(CC1CN(C2CN(c3cc4c(cc3F)C(=O)N(C3CCC(=O)NC3=O)C4)C2)C1)c1ccc(C2(C#N)CC2)cc1` (stereo not shown) [Compound 158], the IC50 in assay [1] (setting [3]) and in assay [2] was less than 100 nM each time.
On to `Cc1ccc(-c2c(C)noc2C)cc1N(CC1CCN(C2CN(c3cc4c(cc3F)C(=O)N(C3CCC(=O)NC3=O)C4)C2)CC1)c1ccc(C2(C#N)CC2)cc1` (stereo not shown) [Compound 160], for which the IC50 in assay [1] (setting [4]) was more than 2000 nM; in assay [2] (Homo sapiens), less than 100 nM.
Taken in the same sequence, the figures for `Cc1ccc(-c2c(C)noc2C)cc1N(CC1CCC(Nc2cc3c(cc2F)C(=O)N(C2CCC(=O)NC2=O)C3=O)CC1)c1ccc(C2(C#N)CC2)cc1` (stereo not shown) [Compound 161, 1-(4-((5-(3,5-dimethylisoxazol-4-yl)-2-methylphenyl)(((1s,4s)-4-((2-(2,6-dioxopiperidin-3-yl)-6-fluoro-1,3-dicarbonylisoindolin-5-yl)amino)cyclohexyl)methyl)amino)phenyl) phenylcyclopropanecarbonitrile] were more than 2000 nM and more than 2000 nM.
